What is called EC50 is the concentration at which the effect is half-maximal. By AC50 is commonly meant the concentration at which the activity in the assay is half-maximal. As usually defined, the IC50 is the point on the concentration scale where inhibition reaches its midpoint.

For data set [1], the target named is T1, Heat shock factor protein 1 (Mus musculus, UniProt P38532).
T1 sequence (P38532 whole entry): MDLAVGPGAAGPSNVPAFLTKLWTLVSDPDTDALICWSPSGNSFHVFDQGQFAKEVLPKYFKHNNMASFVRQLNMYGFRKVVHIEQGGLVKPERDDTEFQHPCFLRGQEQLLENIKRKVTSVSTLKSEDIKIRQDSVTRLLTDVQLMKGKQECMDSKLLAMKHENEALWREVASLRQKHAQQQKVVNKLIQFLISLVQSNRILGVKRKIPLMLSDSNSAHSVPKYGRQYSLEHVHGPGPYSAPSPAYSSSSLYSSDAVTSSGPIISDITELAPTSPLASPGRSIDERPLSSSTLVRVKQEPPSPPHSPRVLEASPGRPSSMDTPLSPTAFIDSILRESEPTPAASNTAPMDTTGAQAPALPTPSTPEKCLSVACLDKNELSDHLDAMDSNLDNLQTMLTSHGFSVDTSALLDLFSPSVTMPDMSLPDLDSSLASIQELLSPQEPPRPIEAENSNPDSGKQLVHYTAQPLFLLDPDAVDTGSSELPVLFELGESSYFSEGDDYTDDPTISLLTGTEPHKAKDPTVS
The experiment in a line: enhancement of HSF1-driven luciferase signal – cell-based, NIH3T3, luminescence, dose retest, confirmation (AID 435004).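 Also: stress induced by proteasome inhibitor MG132 added 30 min after compound; luciferase reporter driven by HSF1 response element in NIH3T3 cells; actives raise luminescence as potentiators of the MG132 stress response.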 It counts as functional.

Data set [2] deals with T2, Protein RecA (Mycobacterium tuberculosis, UniProt P9WHJ3).
T2 sequence (P9WHJ3 whole entry): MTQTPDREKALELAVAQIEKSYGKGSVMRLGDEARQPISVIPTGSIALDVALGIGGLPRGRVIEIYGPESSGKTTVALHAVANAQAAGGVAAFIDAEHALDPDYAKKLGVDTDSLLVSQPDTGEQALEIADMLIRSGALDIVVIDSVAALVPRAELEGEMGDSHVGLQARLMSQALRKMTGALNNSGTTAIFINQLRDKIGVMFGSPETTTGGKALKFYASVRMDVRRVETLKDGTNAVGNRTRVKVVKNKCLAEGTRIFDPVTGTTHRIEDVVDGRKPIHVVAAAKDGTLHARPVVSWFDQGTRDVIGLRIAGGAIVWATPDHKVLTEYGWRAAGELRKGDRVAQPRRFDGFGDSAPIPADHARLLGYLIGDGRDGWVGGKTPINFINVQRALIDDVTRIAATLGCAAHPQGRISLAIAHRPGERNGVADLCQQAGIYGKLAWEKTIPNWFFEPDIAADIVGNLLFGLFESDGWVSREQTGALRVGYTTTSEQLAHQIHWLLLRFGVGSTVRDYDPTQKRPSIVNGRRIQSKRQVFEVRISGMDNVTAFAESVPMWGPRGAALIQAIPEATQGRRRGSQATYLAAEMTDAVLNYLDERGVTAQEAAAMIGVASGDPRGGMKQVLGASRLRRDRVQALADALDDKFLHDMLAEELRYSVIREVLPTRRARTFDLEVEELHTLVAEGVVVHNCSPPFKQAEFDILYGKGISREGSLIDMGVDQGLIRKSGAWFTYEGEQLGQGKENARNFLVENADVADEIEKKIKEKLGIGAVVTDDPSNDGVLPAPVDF
Description: Fluorescence Cell-Free Homogeneous Dose Retest to Identify Inhibitors of RecA-Intein Splicing Activity. [Related pubchem assays (depositor defined):AID2097, AID2223, AID489010, AID492950]. The format is functional.

The target of data set [3] is Luciferin 4-monooxygenase (Photinus pyralis, UniProt P08659). Description: inhibition of purified Photinus pyralis luciferase – biochemical, luminescence, dose response (AID 1891).
The nature of data set [4]: Luminescence Cell-Based Dose Confirmation HTS to Identify Inhibitors of Platelet Dense Granule Release. [Related pubchem assays: 1663 (Primary HTS), 1678 (Summary of Project)]. The format is functional.
Data set [5] deals with T3, Replicative DNA helicase DnaB (Mycobacterium tuberculosis, UniProt P9WMR3).
T3 sequence (P9WMR3 whole entry): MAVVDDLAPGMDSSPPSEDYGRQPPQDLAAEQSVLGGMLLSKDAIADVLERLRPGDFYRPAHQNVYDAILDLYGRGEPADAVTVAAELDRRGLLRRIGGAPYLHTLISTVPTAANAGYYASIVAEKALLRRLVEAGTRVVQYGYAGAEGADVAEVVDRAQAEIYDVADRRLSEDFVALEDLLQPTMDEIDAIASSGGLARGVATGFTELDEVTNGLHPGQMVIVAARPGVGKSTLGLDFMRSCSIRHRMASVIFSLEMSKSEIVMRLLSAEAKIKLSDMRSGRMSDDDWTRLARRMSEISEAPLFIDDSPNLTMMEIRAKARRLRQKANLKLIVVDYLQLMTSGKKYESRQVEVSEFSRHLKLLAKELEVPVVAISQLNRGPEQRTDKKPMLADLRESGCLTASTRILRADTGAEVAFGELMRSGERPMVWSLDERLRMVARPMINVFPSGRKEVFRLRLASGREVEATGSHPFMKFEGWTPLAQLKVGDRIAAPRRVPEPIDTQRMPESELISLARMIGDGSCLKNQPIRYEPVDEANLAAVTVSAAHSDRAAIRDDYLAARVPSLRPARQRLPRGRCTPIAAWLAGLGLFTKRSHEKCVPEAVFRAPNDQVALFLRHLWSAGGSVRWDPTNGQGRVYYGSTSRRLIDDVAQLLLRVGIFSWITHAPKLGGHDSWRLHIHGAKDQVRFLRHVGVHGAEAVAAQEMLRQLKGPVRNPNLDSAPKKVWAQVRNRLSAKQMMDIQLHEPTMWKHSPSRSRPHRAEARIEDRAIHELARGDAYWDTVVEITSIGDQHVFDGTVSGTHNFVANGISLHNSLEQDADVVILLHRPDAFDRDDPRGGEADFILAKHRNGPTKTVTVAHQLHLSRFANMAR
The experiment in a line: DnaB intein splicing inhibitors, dose response, biochemical, cell-free fluorescence (AID 449749). It counts as functional.

Data set [6] addresses T4, Coagulation factor XII (Homo sapiens, UniProt P00748).
T4 sequence (P00748 whole entry): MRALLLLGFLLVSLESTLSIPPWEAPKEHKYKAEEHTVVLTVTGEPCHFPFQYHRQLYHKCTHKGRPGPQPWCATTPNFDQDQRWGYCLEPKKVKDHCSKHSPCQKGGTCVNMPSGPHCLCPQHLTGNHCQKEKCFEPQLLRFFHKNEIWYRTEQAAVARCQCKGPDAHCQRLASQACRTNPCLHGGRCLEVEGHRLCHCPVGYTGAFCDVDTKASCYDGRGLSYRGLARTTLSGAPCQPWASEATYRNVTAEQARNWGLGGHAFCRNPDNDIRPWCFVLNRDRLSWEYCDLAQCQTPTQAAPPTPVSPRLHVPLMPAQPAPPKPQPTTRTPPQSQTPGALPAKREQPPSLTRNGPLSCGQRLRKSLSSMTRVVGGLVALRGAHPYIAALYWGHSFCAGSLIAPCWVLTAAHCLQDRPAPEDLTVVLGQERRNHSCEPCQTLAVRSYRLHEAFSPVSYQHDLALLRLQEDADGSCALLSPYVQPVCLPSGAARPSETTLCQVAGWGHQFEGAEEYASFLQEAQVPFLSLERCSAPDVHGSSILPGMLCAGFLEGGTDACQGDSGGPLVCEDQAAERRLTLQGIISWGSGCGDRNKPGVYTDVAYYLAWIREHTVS
The format is functional.

Data set [7] deals with Cytochrome P450 2C9 (Homo sapiens, UniProt P11712).
In data set [8] the target is T5, Cytochrome P450 1A2 (Homo sapiens, UniProt P05177).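 Also: PubChem cytochrome P450 panel assay, CYP1A2 panel member.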
T5 sequence (P05177 whole entry): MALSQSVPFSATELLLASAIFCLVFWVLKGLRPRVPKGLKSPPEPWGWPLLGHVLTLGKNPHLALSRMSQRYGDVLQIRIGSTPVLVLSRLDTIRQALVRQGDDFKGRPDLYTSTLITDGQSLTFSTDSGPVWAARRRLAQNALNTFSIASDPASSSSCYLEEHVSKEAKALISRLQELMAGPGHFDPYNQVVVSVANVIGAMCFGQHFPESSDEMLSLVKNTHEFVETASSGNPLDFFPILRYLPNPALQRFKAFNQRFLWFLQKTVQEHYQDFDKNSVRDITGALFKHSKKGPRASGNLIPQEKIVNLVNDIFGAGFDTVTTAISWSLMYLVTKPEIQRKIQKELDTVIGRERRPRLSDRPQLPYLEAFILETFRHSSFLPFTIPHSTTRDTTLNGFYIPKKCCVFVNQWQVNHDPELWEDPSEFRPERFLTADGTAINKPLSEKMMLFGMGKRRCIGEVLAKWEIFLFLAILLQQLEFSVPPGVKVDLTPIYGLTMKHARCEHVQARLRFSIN

The target of data set [9] is Cytochrome P450 2D6 (Homo sapiens, UniProt P10635).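 Also: CYP2D6 member of a cytochrome P450 panel assay.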
Data set [10] has as its target Cytochrome P450 2C19 (Homo sapiens, UniProt P33261). The experiment in a line: Cytochrome panel assay with activity outcomes. Panel member name: p450-cyp2c19 Compounds with AC50 equal or less than 10 uM are considered active. The format is functional. The settings on record: read-out: AC50.
In data set [11] the target is Cytochrome P450 3A4 (Homo sapiens, UniProt P08684).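 Also: CYP3A4 tested as one member of a cytochrome P450 panel screen.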
Data set [12] deals with Heat shock protein HSP 90-alpha (Homo sapiens, UniProt P07900). The format is functional, organism-based.

Each structure is given as a SMILES string. The source made the active and inactive calls. A value given as a limit tells only on which side of the number the result lay.
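For IC50 in this document: activated factor XIIa alpha cleaving a fluorogenic AMC peptide substrate; inhibitor potency from loss of enzyme activity.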

Sequence of Cytochrome P450 2D6 (P10635 whole entry): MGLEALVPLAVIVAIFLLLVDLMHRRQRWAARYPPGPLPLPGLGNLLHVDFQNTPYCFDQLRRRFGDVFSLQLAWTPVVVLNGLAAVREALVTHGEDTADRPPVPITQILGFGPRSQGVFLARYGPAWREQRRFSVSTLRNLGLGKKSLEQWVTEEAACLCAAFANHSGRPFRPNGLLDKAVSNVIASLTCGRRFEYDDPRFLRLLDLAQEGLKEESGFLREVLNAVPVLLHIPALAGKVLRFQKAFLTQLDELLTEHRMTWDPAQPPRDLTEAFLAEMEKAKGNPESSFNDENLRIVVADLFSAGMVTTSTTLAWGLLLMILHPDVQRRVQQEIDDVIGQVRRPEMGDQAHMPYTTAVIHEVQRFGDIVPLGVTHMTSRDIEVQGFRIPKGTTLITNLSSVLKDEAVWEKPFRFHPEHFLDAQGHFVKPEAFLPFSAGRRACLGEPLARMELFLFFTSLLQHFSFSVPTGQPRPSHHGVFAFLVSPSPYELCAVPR
Sequence of Cytochrome P450 2C9 (P11712 whole entry): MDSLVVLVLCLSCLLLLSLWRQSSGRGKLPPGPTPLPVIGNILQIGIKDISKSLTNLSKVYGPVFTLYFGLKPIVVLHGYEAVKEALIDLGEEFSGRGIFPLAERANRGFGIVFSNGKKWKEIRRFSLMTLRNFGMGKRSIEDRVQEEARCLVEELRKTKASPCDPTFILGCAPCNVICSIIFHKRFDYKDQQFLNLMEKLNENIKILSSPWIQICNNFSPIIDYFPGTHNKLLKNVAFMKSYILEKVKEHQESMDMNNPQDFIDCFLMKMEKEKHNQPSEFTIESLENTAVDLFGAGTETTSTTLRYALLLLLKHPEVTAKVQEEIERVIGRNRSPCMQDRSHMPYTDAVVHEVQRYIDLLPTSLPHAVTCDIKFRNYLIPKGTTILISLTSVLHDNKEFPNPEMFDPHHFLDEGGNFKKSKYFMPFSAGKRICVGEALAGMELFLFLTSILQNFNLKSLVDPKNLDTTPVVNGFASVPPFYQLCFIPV
Sequence of Cytochrome P450 2C19 (P33261 whole entry): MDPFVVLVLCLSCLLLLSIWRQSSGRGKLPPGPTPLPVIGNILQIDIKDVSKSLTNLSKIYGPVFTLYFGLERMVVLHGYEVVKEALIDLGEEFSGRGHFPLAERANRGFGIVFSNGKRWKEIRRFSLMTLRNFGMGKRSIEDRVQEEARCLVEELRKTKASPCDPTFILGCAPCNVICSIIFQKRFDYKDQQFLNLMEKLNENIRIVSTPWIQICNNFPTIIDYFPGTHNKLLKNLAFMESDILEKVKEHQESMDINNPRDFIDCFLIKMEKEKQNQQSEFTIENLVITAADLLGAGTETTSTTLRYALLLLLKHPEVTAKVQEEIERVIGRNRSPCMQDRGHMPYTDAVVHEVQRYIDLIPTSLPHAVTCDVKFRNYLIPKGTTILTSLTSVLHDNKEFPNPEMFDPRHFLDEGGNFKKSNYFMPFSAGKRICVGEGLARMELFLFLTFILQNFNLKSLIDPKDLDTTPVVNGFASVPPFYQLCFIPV
Sequence of Cytochrome P450 3A4 (P08684 whole entry): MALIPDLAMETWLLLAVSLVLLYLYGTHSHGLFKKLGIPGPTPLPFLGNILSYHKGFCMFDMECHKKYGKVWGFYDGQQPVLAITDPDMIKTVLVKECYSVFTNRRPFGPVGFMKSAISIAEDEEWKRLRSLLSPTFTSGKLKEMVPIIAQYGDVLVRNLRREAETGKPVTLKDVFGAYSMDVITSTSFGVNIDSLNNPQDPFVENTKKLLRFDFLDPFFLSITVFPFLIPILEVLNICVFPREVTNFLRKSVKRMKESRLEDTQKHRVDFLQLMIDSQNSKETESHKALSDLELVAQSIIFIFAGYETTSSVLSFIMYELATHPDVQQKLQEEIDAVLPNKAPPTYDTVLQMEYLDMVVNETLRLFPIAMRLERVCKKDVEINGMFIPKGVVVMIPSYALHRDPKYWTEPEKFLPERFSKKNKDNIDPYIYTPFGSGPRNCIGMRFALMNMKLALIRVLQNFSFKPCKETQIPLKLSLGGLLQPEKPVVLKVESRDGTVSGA
Sequence of Luciferin 4-monooxygenase (P08659 whole entry): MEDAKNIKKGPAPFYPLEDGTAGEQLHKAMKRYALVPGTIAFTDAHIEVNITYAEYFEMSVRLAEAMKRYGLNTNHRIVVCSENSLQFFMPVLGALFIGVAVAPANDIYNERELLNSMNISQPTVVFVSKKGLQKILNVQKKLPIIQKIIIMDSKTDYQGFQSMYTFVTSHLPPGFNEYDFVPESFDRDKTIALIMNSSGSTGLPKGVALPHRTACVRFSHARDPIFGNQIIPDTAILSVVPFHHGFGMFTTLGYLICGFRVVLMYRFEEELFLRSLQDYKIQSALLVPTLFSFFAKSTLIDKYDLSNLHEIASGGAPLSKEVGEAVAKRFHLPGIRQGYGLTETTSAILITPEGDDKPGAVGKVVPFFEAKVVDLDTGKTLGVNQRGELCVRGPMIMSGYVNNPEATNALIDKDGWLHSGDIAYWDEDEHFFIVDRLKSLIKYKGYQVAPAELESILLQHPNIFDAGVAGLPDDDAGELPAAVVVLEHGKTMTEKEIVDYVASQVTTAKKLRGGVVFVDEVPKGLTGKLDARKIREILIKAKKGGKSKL

Turning to `CCN(C(=O)COC(=O)c1c2c(nc3ccccc13)/C(=C/c1ccccc1)CC(C)C2)C1CCS(=O)(=O)C1` (stereo not given), the EC50 in data set [1] is 14.3 µM (active).

On to `CCCc1noc2c1C(c1ccoc1)C(C#N)=C(N)N2` (stereo not given), for which the EC50 in [2] was 1.06 µM (active); in [3] it was > 112 µM (not active); in data set [4], > 112 µM (not active). Also, in data set [5], the AC50 was 157 µM (active).

Regarding `NC(=O)c1c(N)sc2c1CCC2`, the IC50 in data set [6] is > 50 µM (inactive).

For `CCOc1ccccc1NC(=O)C1Cc2ccccc2CN1S(C)(=O)=O` (stereo not given), the half-maximal activity concentration (AC50) entry in data set [7] was “inconclusive”; in data set [8] it was 39.8 µM (inconclusive).

Turning to `Cc1ccc(C(=O)NCCNc2ccc(Cl)cc2[N+](=O)[O-])o1`, the IC50 in data set [6] is > 50 µM (inactive). In data set [9], the AC50 is 20 µM (inconclusive).

`O=C(CF)NC(NC(S)=Nc1ccccc1O)C(Cl)(Cl)Cl` (stereo not given): the EC50 in data set [1] was > 260 µM (inactive).

For the molecule `O=C(CSC1=NCCN1)Nc1cccc(C(F)(F)F)c1`, the EC50 in data set [1] was > 260 µM (inactive).

Consider `Cc1csc(NC(=O)C(CC(C)C)NS(=O)(=O)c2ccc3c(c2)oc(=O)n3C)n1` (stereo not given), for which the IC50 in data set [6] was > 50 µM (inactive).

For `COc1ccccc1NC(=O)c1ccc(-n2cccn2)nc1`, the AC50 in [10] was 25.1 µM (inconclusive); in [7], “inconclusive”.

Turning to `O=C(CS(=O)(=O)c1cn(Cc2ccc(Cl)cc2)c2ccccc12)N1CCOCC1`, the IC50 in data set [6] was > 50 µM (inactive).

Regarding `COc1ccc2c(c1)CCc1sc(NC(=O)c3ccc(C)cc3)nc1-2`, the IC50 in data set [6] is > 50 µM (inactive).

On to `CSc1nc(S(=O)(=O)c2ccc(C)cc2)c(Cl)s1`, for which, in [1], the EC50 was > 260 µM (inactive).

As for `Nc1ccccc1Oc1ncc(C(F)(F)F)cc1Cl`, in data set [7], the AC50 entry is on record as “inconclusive”.

For the molecule `Cc1ccc2c(c1)N(CCC(=O)NCC1CCCO1)C(=O)CO2` (stereo not given), the figures for the AC50 result in [7] and in [11] were “inconclusive” and 25.1 µM (inconclusive), respectively.

Regarding `CN(C)c1ccc(-c2nc(N(C)C)c3ccccc3n2)cc1`, the AC50 in data set [10] is 39.8 µM (inconclusive); in [7], “inconclusive”.

For the molecule `COCCNc1cc(-c2ccccc2CN(C)C)ncn1`, the AC50 entry in data set [7] was “inconclusive”; in [9] it was 31.6 µM (inconclusive).

As to `CCOC(=O)CC(NC(=O)C1c2ccccc2Oc2ccccc21)c1ccccc1Cl` (stereo not given), the EC50 in [1] was > 260 µM (inactive).

Take `COc1cc2c(cc1OC)C(=O)N1[C@H]3c4ccccc4OC[C@@H]3[C@H](c3ccccc3)[C@]1(C)C(=O)N2`: the AC50 in data set [12] was 9.07 µM (active).

For the molecule `Cc1nc(-c2ccc(Cl)cc2)sc1C(=O)CBr`, the EC50 in data set [1] is 70.2 µM (active).

`Cc1cc(C)c2cc(C(=O)N(C)C3CCN(C)CC3)[nH]c2c1`: the EC50 in data set [1] is > 260 µM (inactive).

`Cn1nnnc1SCCNC/C=C/c1ccccc1`: in data set [1], the EC50 was > 260 µM (inactive).

Consider `Cc1cc(C(=O)CC#N)c(C)n1CC(F)(F)F`, for which the results for the AC50 in data set [10] and in data set [7] were 22.4 µM (inconclusive) and “inconclusive”, respectively.

For `Cc1nc(O)nc(O)c1/C=N/NC(=O)[C@@H](N)CC(C)C`, the IC50 in [6] is > 50 µM (inactive).

As for `C=CCOc1ccccc1OC[C@H](O)CNC(C)C` [OXPRENOLOL], the results for the AC50 entry in data set [7] and in [9] were “inconclusive” and 7.94 µM (inconclusive), respectively.

For the origin of these results see ChEMBL document CHEMBL1201862, “PubChem BioAssay data set” (2004).
